Test results from PubChem BioAssay (NCI).
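Each compound was tested at five concentrations against cells in 96-well plates for 48 hours. At the TGI there is no net growth.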

How the values were obtained:
Assay in all cases: NCI tumour cell line growth inhibition, 48 h
[1] = tested on: NCI-H460 lung
[2] = tested on: RXF 393 renal
[3] = tested on: SNB-19 CNS
[4] = tested on: HOP-18 NSCLC
[5] = tested on: OVCAR-8 ovarian
[6] = tested on: RPMI-8226 leukemia
[7] = tested on: LOX IMVI melanoma
[8] = tested on: K-562 leukemia
[9] = tested on: MOLT-4 leukemia
[10] = tested on: SW-620 colon
[11] = tested on: UACC-257 melanoma
[12] = tested on: SR leukemia
[13] = tested on: MALME-3M melanoma
[14] = tested on: SK-MEL-28 melanoma
[15] = tested on: HL-60(TB) leukemia
[16] = tested on: SF-295 CNS
[17] = tested on: DMS 114 small cell lung
[18] = tested on: HCT-15 colon
[19] = tested on: HOP-62 NSCLC
[20] = tested on: A549 NSCLC
[21] = tested on: HCT-116 colon
[22] = tested on: M14 melanoma
[23] = tested on: NCI-H23 lung
[24] = tested on: TK-10 renal
[25] = tested on: 786-0 renal
[26] = tested on: COLO 205 colon
[27] = tested on: SNB-75 CNS
[28] = tested on: HCC-2998 colon
[29] = tested on: NCI-H522 lung
[30] = tested on: OVCAR-5 ovarian
[31] = tested on: A498 renal
[32] = tested on: SN12C renal
[33] = tested on: SF-539 CNS
[34] = tested on: EKVX NSCLC
[35] = tested on: SF-268 CNS
[36] = tested on: SK-MEL-5 melanoma
[37] = tested on: IGROV1 ovarian
[38] = tested on: SK-OV-3 ovarian
[39] = tested on: UO-31 renal
[40] = tested on: NCI-H226 lung
[41] = tested on: UACC-62 melanoma
[42] = tested on: CCRF-CEM leukemia
[43] = tested on: OVCAR-4 ovarian
[44] = tested on: ACHN renal
[45] = tested on: KM12 colon
[46] = tested on: M19-MEL melanoma
[47] = tested on: HOP-92 NSCLC
[48] = tested on: CAKI-1 renal
[49] = tested on: XF 498 CNS
[50] = tested on: LXFL 529 NSCLC
[51] = tested on: HT29 colon
[52] = tested on: U251 CNS
[53] = tested on: KM20L2 colon
[54] = tested on: OVCAR-3 ovarian
[55] = tested on: RXF-631 renal
[56] = tested on: DLD-1 colon
[57] = tested on: DMS 273 small cell lung
[58] = tested on: SK-MEL-2 melanoma

`O=C(CCc1nnc2s/c(=C\c3ccc(Cl)c(Cl)c3)c(=O)n12)Nc1ccc(Cl)c(Cl)c1` was tested, and the TGI [1] was greater than 100 µM, the TGI [2] was 74 µM and the TGI [3] was greater than 100 µM. The TGI [4] was greater than 100 µM, the TGI [5] was 43.6 µM and the TGI [6] was 62.2 µM. It also gave a TGI [7] of 39 µM, a TGI [8] greater than 100 µM and a TGI [9] of 52.6 µM. For the same molecule, the TGI [10] was greater than 100 µM, the TGI [11] was greater than 100 µM and the TGI [12] was 74 µM. For the same molecule, the TGI [13] was greater than 100 µM, the TGI [14] was greater than 100 µM and the TGI [15] was 64 µM. For the same molecule, the TGI [16] was greater than 100 µM, the TGI [17] was greater than 100 µM and the TGI [18] was greater than 100 µM. For the same molecule, the TGI [19] was greater than 100 µM, the TGI [20] was greater than 100 µM and the TGI [21] was greater than 100 µM. For the same molecule, the TGI [22] was greater than 100 µM, the TGI [23] was greater than 100 µM and the TGI [24] was greater than 100 µM. For the same molecule, the TGI [25] was greater than 100 µM, the TGI [26] was greater than 100 µM and the TGI [27] was greater than 100 µM. It also gave a TGI [28] greater than 100 µM, a TGI [29] of 65.3 µM and a TGI [30] greater than 100 µM. For the same molecule, the TGI [31] was greater than 100 µM, the TGI [32] was greater than 100 µM and the TGI [33] was greater than 100 µM. It also gave a TGI [34] greater than 100 µM, a TGI [35] greater than 100 µM and a TGI [36] greater than 100 µM. For the same molecule, the TGI [37] was greater than 100 µM, the TGI [38] was greater than 100 µM and the TGI [39] was greater than 100 µM. For the same molecule, the TGI [40] was greater than 100 µM, the TGI [41] was greater than 100 µM and the TGI [42] was 60.2 µM. It also gave a TGI [43] greater than 100 µM, a TGI [44] greater than 100 µM and a TGI [45] greater than 100 µM. The TGI [46] was greater than 100 µM, the TGI [47] was greater than 100 µM and the TGI [48] was greater than 100 µM. It also gave a TGI [49] greater than 100 µM, a TGI [50] greater than 100 µM and a TGI [51] greater than 100 µM. It also gave a TGI [52] greater than 100 µM, a TGI [53] greater than 100 µM and a TGI [54] greater than 100 µM.

For `NC(=O)CCC(Nc1c2ccccc2nc2ccccc12)C(=O)O` (stereo unspecified), the TGI [1] was greater than 100 µM, the TGI [2] was greater than 100 µM and the TGI [55] was greater than 100 µM. The TGI [5] was greater than 100 µM, the TGI [6] was greater than 100 µM and the TGI [7] was greater than 100 µM. The TGI [8] was greater than 100 µM, the TGI [9] was greater than 100 µM and the TGI [10] was greater than 100 µM. For the same molecule, the TGI [56] was greater than 100 µM, the TGI [11] was greater than 100 µM and the TGI [12] was greater than 100 µM. The TGI [13] was greater than 100 µM, the TGI [14] was greater than 100 µM and the TGI [15] was greater than 100 µM. For the same molecule, the TGI [16] was greater than 100 µM, the TGI [18] was greater than 100 µM and the TGI [20] was greater than 100 µM. The TGI [21] was greater than 100 µM, the TGI [22] was greater than 100 µM and the TGI [23] was greater than 100 µM. The TGI [24] was greater than 100 µM, the TGI [25] was greater than 100 µM and the TGI [26] was greater than 100 µM. The TGI [27] was greater than 100 µM, the TGI [28] was greater than 100 µM and the TGI [29] was greater than 100 µM. It also gave a TGI [30] greater than 100 µM, a TGI [32] greater than 100 µM and a TGI [33] greater than 100 µM. The TGI [34] was greater than 100 µM, the TGI [35] was greater than 100 µM and the TGI [40] was greater than 100 µM. It also gave a TGI [42] greater than 100 µM, a TGI [43] of 80.8 µM and a TGI [44] greater than 100 µM. For the same molecule, the TGI [45] was greater than 100 µM, the TGI [46] was greater than 100 µM and the TGI [47] was greater than 100 µM. It also gave a TGI [48] greater than 100 µM, a TGI [50] greater than 100 µM and a TGI [51] greater than 100 µM. The TGI [52] was greater than 100 µM, the TGI [53] was greater than 100 µM and the TGI [54] was greater than 100 µM. It also gave a TGI [57] greater than 100 µM and a TGI [58] greater than 100 µM.
